Columns and labels:
Type in all cases: in vivo
[1] = tested on: transplanted Oryza sativa; assay: Test Example 1: effect on crop, application before weed generation in submerged conditions; details: Application herbicide amount 320 g/ha; Seventeenth Table
In short: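 Water-diluted emulsion formulation is applied onto flood water (4 cm deep) covering alluvial soil on the day weed seeds are sown, after transplanting 2.5 leaf stage rice. Rates are expressed per hectare. Injury or control is graded 0–5 three weeks later.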

[2] = tested on: Echinochloa oryzacola Vasing.; assay: Test Example 2: herbicidal activity, application during weed generation in submerged conditions; details: Eighteenth Table; application herbicide amount 320 g/ha
In short: (§1)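 Seeds were sown together in alluvial soil kept under 4 cm of water and grown at 25 °C to 30 °C. Once plants reached the one- to two-leaf stage, the diluted emulsion was applied to the water surface at a predetermined g/ha amount, and effects were rated 0–5 after three weeks.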

Scirpus juncoides = assay: as above; details: Eighteenth Table; application herbicide amount 320 g/ha
In short: as §1

Monochoria vaginalis = assay: as above; details: Eighteenth Table; application herbicide amount 320 g/ha
In short: as §1

[3] = tested on: Echinochloa crus-galli var. crus-galli; assay: Test Example 3: herbicidal effect by application to foliage (Wagner pot, water depth 0.1-0.5 cm); details: Nineteenth Table; application to foliage; application herbicide amount 320 g/ha
In short: (§2)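 Alluvial soil in 1/10000 are Wagner pots, sown and grown 14 days in a 25–30 °C greenhouse. An emulsifiable concentrate diluted in water to the set dose (g/ha) was sprayed on stems and leaves. Effect scored three weeks later on a 0–5 scale: 5 = ≥90% herbicidal ratio, 0 = ≤5%.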

Leptochloa chinensis = assay: as above; details: Nineteenth Table; application to foliage; application herbicide amount 320 g/ha
In short: as §2

Cyperus difformis = assay: as above; details: Nineteenth Table; application to foliage; application herbicide amount 320 g/ha
In short: as §2

Compound | a: transplanted Oryza sativa (effect on crop grade) [1] | A (Echinochloa oryzicola Vasing.) herbicidal ratio grade [2] | B (Scirpus juncoides) herbicidal ratio grade (Scirpus juncoides) | C (Monochoria vaginalis) herbicidal ratio grade (Monochoria vaginalis) | H (herbicidal effect grade) [3] | D (herbicidal effect grade) (Leptochloa chinensis) | E (herbicidal effect grade) (Cyperus difformis)
O=C(Nc1nnco1)c1ccc(C(F)(F)F)n2c(N3CCCC3)nnc12 [1-139] | 2 (Herbicidal ratio of 20% or more and less than 40%) | 4 (Herbicidal ratio of 70% or more and less than 90%) | 3 (Herbicidal ratio of 40% or more and less than 70%) | 3 (Herbicidal ratio of 40% or more and less than 70%) | 4 (Herbicidal ratio of 70% or more and less than 90%) | 5 (Herbicidal ratio of 90% or more (almost completely withered)) | 5 (Herbicidal ratio of 90% or more (almost completely withered))
O=C(Nc1nnco1)c1ccc(C(F)(F)F)n2c(C3CC3)nnc12 [1-144] | 1 (Herbicidal ratio of 5% or more and less than 20%) | 4 (Herbicidal ratio of 70% or more and less than 90%) | 4 (Herbicidal ratio of 70% or more and less than 90%) | 3 (Herbicidal ratio of 40% or more and less than 70%) | 5 (Herbicidal ratio of 90% or more (almost completely withered)) | 4 (Herbicidal ratio of 70% or more and less than 90%) | 2 (Herbicidal ratio of 20% or more and less than 40%)
CCC(CC)c1nnc2c(C(=O)Nc3nnco3)ccc(C(F)(F)F)n12 [1-145] | 4 (Herbicidal ratio of 70% or more and less than 90%) | 4 (Herbicidal ratio of 70% or more and less than 90%) | 4 (Herbicidal ratio of 70% or more and less than 90%) | 4 (Herbicidal ratio of 70% or more and less than 90%) | 5 (Herbicidal ratio of 90% or more (almost completely withered)) | 5 (Herbicidal ratio of 90% or more (almost completely withered)) | 5 (Herbicidal ratio of 90% or more (almost completely withered))
CSCc1nnc2c(C(=O)Nc3nnco3)ccc(C(F)(F)F)n12 [1-146] | 3 (Herbicidal ratio of 40% or more and less than 70%) | 3 (Herbicidal ratio of 40% or more and less than 70%) | 3 (Herbicidal ratio of 40% or more and less than 70%) | 3 (Herbicidal ratio of 40% or more and less than 70%) | 5 (Herbicidal ratio of 90% or more (almost completely withered)) | 5 (Herbicidal ratio of 90% or more (almost completely withered)) | 4 (Herbicidal ratio of 70% or more and less than 90%)
O=C(Nc1nnco1)c1ccc(C(F)(F)F)n2c(-c3ccc(F)cc3)nnc12 [1-147] | 2 (Herbicidal ratio of 20% or more and less than 40%) | 4 (Herbicidal ratio of 70% or more and less than 90%) | 2 (Herbicidal ratio of 20% or more and less than 40%) | 3 (Herbicidal ratio of 40% or more and less than 70%) | 5 (Herbicidal ratio of 90% or more (almost completely withered)) | 5 (Herbicidal ratio of 90% or more (almost completely withered)) | 3 (Herbicidal ratio of 40% or more and less than 70%)
COc1cc(OC)cc(-c2nnc3c(C(=O)Nc4nnco4)ccc(C(F)(F)F)n23)c1 [1-148] | 4 (Herbicidal ratio of 70% or more and less than 90%) | 5 (Herbicidal ratio of 90% or more (almost completely withered)) | 5 (Herbicidal ratio of 90% or more (almost completely withered)) | 4 (Herbicidal ratio of 70% or more and less than 90%) | 5 (Herbicidal ratio of 90% or more (almost completely withered)) | 5 (Herbicidal ratio of 90% or more (almost completely withered)) | 5 (Herbicidal ratio of 90% or more (almost completely withered))
COc1ccc(-c2nnc3c(C(=O)Nc4nnco4)ccc(C(F)(F)F)n23)cc1 [1-149] | 3 (Herbicidal ratio of 40% or more and less than 70%) | 3 (Herbicidal ratio of 40% or more and less than 70%) | 3 (Herbicidal ratio of 40% or more and less than 70%) | 2 (Herbicidal ratio of 20% or more and less than 40%) | 5 (Herbicidal ratio of 90% or more (almost completely withered)) | 5 (Herbicidal ratio of 90% or more (almost completely withered)) | 5 (Herbicidal ratio of 90% or more (almost completely withered))
O=C(Nc1nnco1)c1ccc(C(F)(F)F)n2c(-c3ccc(Cl)nc3)nnc12 [1-150] | 4 (Herbicidal ratio of 70% or more and less than 90%) | 5 (Herbicidal ratio of 90% or more (almost completely withered)) | 5 (Herbicidal ratio of 90% or more (almost completely withered)) | 4 (Herbicidal ratio of 70% or more and less than 90%) | 5 (Herbicidal ratio of 90% or more (almost completely withered)) | 5 (Herbicidal ratio of 90% or more (almost completely withered)) | 5 (Herbicidal ratio of 90% or more (almost completely withered))
COc1ccc(Cc2nnc3c(C(=O)Nc4nnco4)ccc(C(F)(F)F)n23)cc1 [1-151] | 0 (Herbicidal ratio of 5% or less (almost no effect)) | 4 (Herbicidal ratio of 70% or more and less than 90%) | 4 (Herbicidal ratio of 70% or more and less than 90%) | 2 (Herbicidal ratio of 20% or more and less than 40%) | 5 (Herbicidal ratio of 90% or more (almost completely withered)) | 4 (Herbicidal ratio of 70% or more and less than 90%) | 4 (Herbicidal ratio of 70% or more and less than 90%)
C#CCN(C)c1nnc2c(C(=O)Nc3nnc(C)o3)ccc(C(F)(F)F)n12 [1-152] | 2 (Herbicidal ratio of 20% or more and less than 40%) | 3 (Herbicidal ratio of 40% or more and less than 70%) | 3 (Herbicidal ratio of 40% or more and less than 70%) | 3 (Herbicidal ratio of 40% or more and less than 70%) | 5 (Herbicidal ratio of 90% or more (almost completely withered)) | 5 (Herbicidal ratio of 90% or more (almost completely withered)) | 4 (Herbicidal ratio of 70% or more and less than 90%)

Reference: US9708314B2, “Heterocyclic amide compound” (NISSAN CHEMICAL INDUSTRIES, LTD., priority 2013, dated 2017)
